Laboratory results published in ChEMBL document CHEMBL1137206, “A nonpeptidic sulfonamide inhibits the p53-mdm2 interaction and activates p53-dependent transcription in mdm2-overexpressing cells” (J Med Chem, 2004).

Target: Tumour suppressor p53/oncoprotein Mdm2 (Homo sapiens, UniProt P04637+Q00987)
Experiment: In vitro inhibitory concentration against p53-mdm2 interaction
Format: protein assay

Tumour suppressor p53/oncoprotein Mdm2, sequence (P04637 whole entry): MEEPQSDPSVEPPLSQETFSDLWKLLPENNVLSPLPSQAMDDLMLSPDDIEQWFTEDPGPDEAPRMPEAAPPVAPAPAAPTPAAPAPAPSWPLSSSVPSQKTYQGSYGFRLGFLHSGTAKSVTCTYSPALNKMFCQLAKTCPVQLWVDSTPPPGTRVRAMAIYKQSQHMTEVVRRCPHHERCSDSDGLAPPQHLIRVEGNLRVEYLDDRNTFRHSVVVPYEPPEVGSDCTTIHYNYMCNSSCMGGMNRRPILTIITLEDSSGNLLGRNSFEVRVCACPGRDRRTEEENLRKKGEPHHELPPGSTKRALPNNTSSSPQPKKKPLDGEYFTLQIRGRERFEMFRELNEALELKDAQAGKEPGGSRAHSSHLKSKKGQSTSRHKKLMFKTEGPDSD
Tumour suppressor p53/oncoprotein Mdm2, sequence (Q00987 whole entry): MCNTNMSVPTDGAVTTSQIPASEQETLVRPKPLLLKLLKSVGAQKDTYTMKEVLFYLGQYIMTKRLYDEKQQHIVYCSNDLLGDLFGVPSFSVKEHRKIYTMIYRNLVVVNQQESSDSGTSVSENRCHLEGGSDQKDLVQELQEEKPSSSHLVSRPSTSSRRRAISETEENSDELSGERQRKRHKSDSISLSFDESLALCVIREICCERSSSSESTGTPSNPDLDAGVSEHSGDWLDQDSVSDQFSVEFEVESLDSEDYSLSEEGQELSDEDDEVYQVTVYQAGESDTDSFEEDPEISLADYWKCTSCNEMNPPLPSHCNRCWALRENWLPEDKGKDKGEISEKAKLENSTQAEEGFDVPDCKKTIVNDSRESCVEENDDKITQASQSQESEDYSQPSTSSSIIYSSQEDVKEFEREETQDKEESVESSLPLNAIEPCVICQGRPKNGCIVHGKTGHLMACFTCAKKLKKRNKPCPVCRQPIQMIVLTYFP

- IC50: 31.8 µM
Structure (SMILES): CC(C)Oc1ccc(C(=O)NS(=O)(=O)c2ccc(NN=C3C(=O)N(c4ccccc4)N(c4ccccc4)C3=O)cc2)cc1
